Source: patent US3987200A, “Method for increasing cardiac contractility” (Eli Lilly and Company, priority 1975, dated 1976)
Counter-ions that a name gives are not always drawn.

Assays:
LD50 in mice = conditions: mouse, in vivo
dogs = test: Cardiac and Blood Pressure Effects in dogs (Table I); assay type: in vivo; conditions: for Contractile Potency ED50 / Contractile Potency ED100: i.v. infusion; for Blood Pressure Change at Effective dose ED50 / Heart Rate Increase at Effective dose ED50 / Blood Pressure Change at Effective dose ED100 / Heart Rate Increase at Effective dose ED100: i.v.

## CC(Cc1ccc(O)c(O)c1)NCCCc1ccc(O)cc1 (racemic) [3,4-dihydroxy-N-[3-(4-hydroxyphenyl)-n-propyl]-α-methyl-β-phenethylamine hydrobromide]
LD50 in mice
  LD50: 82.7 ± 5.72 mg/kg

## CC(CCc1ccc(O)cc1)NCCc1ccc(O)c(O)c1 (racemic) [dl-, 3,4-dihydroxy-N-[3-(4-hydroxyphenyl)-1-methyl-n-propyl]-β-phenethylamine]
dogs
  Contractile Potency ED50: 3 ± 1 µg/kg/min
  Contractile Potency ED100: 10 ± 3 µg/kg/min
dogs; at ED50
  Blood Pressure Change at Effective dose ED50: 3 ± 5 mm. Hg.
  Heart Rate Increase at Effective dose ED50: 13 ± 4 Beats/minute
dogs; at ED100
  Blood Pressure Change at Effective dose ED100: 6 ± 6 mm. Hg.
  Heart Rate Increase at Effective dose ED100: 30 ± 4 Beats/minute
LD50 in mice
  LD50: 73.2 ± 3.68 mg/kg

## CC(CCc1ccc(O)cc1)NCCc1ccc(O)c(O)c1 (single isomer, unassigned) [d-, d-3,4-dihydroxy-N-[3-(4-hydroxyphenyl)-1-methyl-n-propyl]-β-phenethylamine]
dogs
  Contractile Potency ED50: 2.8 ± .3 µg/kg/min
  Contractile Potency ED100: 6.1 ± .4 µg/kg/min
dogs; at ED50
  Blood Pressure Change at Effective dose ED50: 8 ± 2 mm. Hg.
  Heart Rate Increase at Effective dose ED50: 11 ± 3 Beats/minute
dogs; at ED100
  Blood Pressure Change at Effective dose ED100: 6 ± 3 mm. Hg.
  Heart Rate Increase at Effective dose ED100: 28 ± 7 Beats/minute

## CC(CCc1ccc(O)cc1)NCCc1ccc(O)c(O)c1 (single isomer, unassigned) [l-, l-3,4-dihydroxy-N-[3-(4-hydroxyphenyl)-1-methyl-n-propyl]-β-phenethylamine hydrochloride]
dogs; Table I data
  activity on contractile force (in words): somewhat less active than either the d-isomer or dl-racemate on contractile force
  pressor activity (in words): marked pressor activity
dogs; hydrochloride
  Contractile Potency ED50: 9 ± 2 µg/kg/min
  Contractile Potency ED100: 25 ± 5 µg/kg/min
dogs; at ED50, hydrochloride
  Blood Pressure Change at Effective dose ED50: 39 ± 3 mm. Hg.
  Heart Rate Increase at Effective dose ED50: 8 ± 5 Beats/minute
dogs; at ED100, hydrochloride
  Blood Pressure Change at Effective dose ED100: 63 ± 4 mm. Hg.
  Heart Rate Increase at Effective dose ED100: 28 ± 9 Beats/minute
